The values that follow are results of earlier work, collected in patent US6455070B1, “Composition for treating symptoms of influenza” (East Park Research, Inc., priority 2001, dated 2002).

This data set concerns wide variety of viruses. The note with it: greatest activity under alkaline conditions (pH 7.5).

In the case of `COC(=O)C1=CO[C@@H](C)[C@@H](C=O)[C@@H]1CC(=O)[O-].COC(=O)C1=CO[C@@H](C)[C@@H](C=O)[C@@H]1CC(=O)[O-].[Ca+2]` [calcium elenolate], the “in vitro antiviral activity” value is listed as “activity against a wide variety of viruses”.
